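Exposure lasted 48 hours, with cells grown in 96-well plates and compounds tested at five concentrations. At the GI50, growth is halved.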 Calls of active or inactive are those of the source. Cut-off read from the data, not from the text of the source: active = GI50 up to about 1.1 µM and inactive = higher.
Legend:
Assay in all cases: DTP human tumour cell line panel, 48 h
IGROV-1 = system: IGROV-1
RXF 393 = system: RXF 393
PC-3 = system: PC-3
HT-29 = system: HT-29
K562 = system: K562
T47D = system: T47D
EKVX = system: EKVX
SK-MEL-5 = system: SK-MEL-5
OVCAR-3 = system: OVCAR-3
A498 = system: A498
RPMI-8226 = system: RPMI-8226
HOP-62 = system: HOP-62
SW-620 = system: SW-620
UACC-62 = system: UACC-62
OVCAR-5 = system: OVCAR-5
ACHN = system: ACHN
UO-31 = system: UO-31
HOP-92 = system: HOP-92

Measured: GI50

CCOC(=O)C(C#N)C1=CC(=O)C(=O)c2ccc(O)cc21 (configuration not stated)
inactive: IGROV-1 78 µM | RXF 393 > 100 µM | PC-3 > 100 µM | HT-29 > 100 µM | K562 > 100 µM | T47D 79.4 µM | EKVX > 100 µM | SK-MEL-5 42.7 µM | OVCAR-3 64 µM | A498 > 100 µM | RPMI-8226 > 100 µM | HOP-62 > 100 µM | SW-620 77.4 µM | UACC-62 17.1 µM | OVCAR-5 > 100 µM | ACHN 42.3 µM | UO-31 30.5 µM

COc1ccc(-n2nnnc2C2(Nc3ccccc3)CCN(Cc3ccccc3)CC2)cc1
inactive: IGROV-1 11.9 µM | RXF 393 17.5 µM | HT-29 6.82 µM | K562 3.13 µM | T47D 14.7 µM | EKVX 21.6 µM | SK-MEL-5 10.2 µM | A498 12.8 µM | RPMI-8226 9.77 µM | HOP-62 16.5 µM | SW-620 7.38 µM | UACC-62 10.5 µM | OVCAR-5 15.7 µM | ACHN 31.8 µM | UO-31 7.48 µM | HOP-92 3.45 µM

Cc1ccc(S(=O)(=O)N2CCC2c2ccccc2)cc1 (configuration not stated)
inactive: IGROV-1 > 100 µM | RXF 393 84.5 µM | HT-29 > 100 µM | K562 41.8 µM | EKVX 64 µM | SK-MEL-5 42 µM | OVCAR-3 81.5 µM | A498 > 100 µM | RPMI-8226 66.2 µM | HOP-62 > 100 µM | SW-620 > 100 µM | UACC-62 76.7 µM | ACHN > 100 µM | UO-31 23.1 µM | HOP-92 10.1 µM

CC(NC1=NCCO1)c1cccs1 (configuration not stated)
inactive: IGROV-1 23.1 µM | RXF 393 > 10 µM | HT-29 19.1 µM | K562 22.1 µM | T47D 36.4 µM | EKVX 88.1 µM | SK-MEL-5 31.8 µM | A498 74 µM | RPMI-8226 23.7 µM | HOP-62 22.2 µM | SW-620 36.5 µM | UACC-62 16.5 µM | OVCAR-5 69.5 µM | ACHN 74.6 µM | UO-31 24.9 µM | HOP-92 12.6 µM

COc1ccc(/C=C/[N+](=O)[O-])cc1
inactive: IGROV-1 3.57 µM | HT-29 3.24 µM | K562 3.53 µM | EKVX 13.2 µM | SK-MEL-5 11.6 µM | OVCAR-3 3.61 µM | A498 5.15 µM | HOP-62 8.07 µM | SW-620 2.83 µM | UACC-62 14.9 µM | OVCAR-5 14.4 µM | ACHN 7.48 µM | UO-31 11.3 µM
